Laboratory results reported in US20220395496A1 (Hoffmann-La Roche Inc., priority 2019, published 2022).

These compounds were tested against T1, human TLR7 (Homo sapiens, UniProt Q9NYK1) (assay: HEK293-Blue-hTLR-7 cells assay (SEAP reporter, R848 stimulation)). Settings: HEK293-Blue-hTLR7 cells, R848, 20 hrs; lowest tested concentration 0.0032.
T1 sequence (Q9NYK1 27-1049): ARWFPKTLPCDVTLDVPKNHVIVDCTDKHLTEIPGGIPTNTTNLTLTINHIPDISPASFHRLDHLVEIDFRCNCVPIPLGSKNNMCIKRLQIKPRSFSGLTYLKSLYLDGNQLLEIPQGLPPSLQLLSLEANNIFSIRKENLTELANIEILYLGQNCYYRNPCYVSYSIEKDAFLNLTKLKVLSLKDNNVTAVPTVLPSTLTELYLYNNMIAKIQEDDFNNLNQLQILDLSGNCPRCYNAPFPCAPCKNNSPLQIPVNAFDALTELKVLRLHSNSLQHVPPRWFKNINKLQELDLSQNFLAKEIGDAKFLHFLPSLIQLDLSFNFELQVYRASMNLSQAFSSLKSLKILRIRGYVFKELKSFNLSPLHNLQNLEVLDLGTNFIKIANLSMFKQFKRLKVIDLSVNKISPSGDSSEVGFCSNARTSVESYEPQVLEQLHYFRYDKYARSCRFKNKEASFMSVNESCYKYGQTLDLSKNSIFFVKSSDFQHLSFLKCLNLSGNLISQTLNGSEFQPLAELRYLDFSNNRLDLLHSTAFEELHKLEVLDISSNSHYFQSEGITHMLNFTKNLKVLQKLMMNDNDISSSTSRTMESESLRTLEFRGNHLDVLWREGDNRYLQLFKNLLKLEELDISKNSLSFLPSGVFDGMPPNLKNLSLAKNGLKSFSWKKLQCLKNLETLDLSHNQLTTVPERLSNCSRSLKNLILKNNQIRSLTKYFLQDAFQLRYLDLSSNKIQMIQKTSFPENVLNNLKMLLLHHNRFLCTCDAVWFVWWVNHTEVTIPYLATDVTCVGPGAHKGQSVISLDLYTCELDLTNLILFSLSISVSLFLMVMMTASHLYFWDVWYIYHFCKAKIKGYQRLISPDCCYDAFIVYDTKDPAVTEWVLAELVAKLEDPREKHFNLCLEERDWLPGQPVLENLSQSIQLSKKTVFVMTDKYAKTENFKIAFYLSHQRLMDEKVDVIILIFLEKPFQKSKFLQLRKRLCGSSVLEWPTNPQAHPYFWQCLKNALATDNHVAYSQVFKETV
Assay type: cell-based
Protocol: The following tests were carried out in order to determine the activity of the compounds of this invention in HEK293-Blue-hTLR-7/8/9 cells assay.
HEK293-Blue-hTLR-7 Cells Assay:
A stable HEK293-Blue-hTLR-7 cell line was purchased from InvivoGen (Cat. #: hkb-htlr7, San Diego, Calif., USA). These cells were originally designed for studying the stimulation of human TLR7 by monitoring the activation of NF-κB. A SEAP (secreted embryonic alkaline phosphatase) reporter gene was placed under the control of the IFN-β minimal promoter fused to five NF-κB and AP-1-binding sites. The SEAP was induced by activating NF-κB and AP-1 via stimulating HEK-Blue hTLR7 cells with TLR7 ligands. Therefore the reporter expression was declined by TLR7 antagonist under the stimulation of a ligand, such as R848 (Resiquimod), for incubation of 20 hrs. The cell culture supernatant SEAP reporter activity was determined using QUANTI-Blue™ kit (Cat. #: rep-qb1, Invivogen, San Diego, Calif., USA) at a wavelength of 640 nm, a detection medium that turns purple or blue in the presence of alkaline phosphatase.
HEK293-Blue-hTLR7 cells were incubated at a density of 250,000˜450,000 cells/mL in a volume of 170 μL in a 96-well plate in Dulbecco's Modified Eagle's medium (DMEM) containing 4.5 g/L glucose, 50 U/mL penicillin, […], […], 2 mM L-glutamine, 10% (v/v) heat-inactivated fetal bovine serum with addition of 20 μL test compound in a serial dilution in the presence of final DMSO at 1% and 10 μL of 20 uM R848 in above DMEM, perform incubation under 37° C. in a CO2 incubator for 20 hrs. Then 20 μL of the supernatant from each well was incubated with 180 μL Quanti-blue substrate solution at 37° C. for 2 hrs and the absorbance was read at 620-655 nm using a spectrophotometer. The signalling pathway that TLR7 activation leads to downstream NF-κB activation has been widely accepted, and therefore similar reporter assay was modified for evaluating TLR7 antagonist.

SMILES	IC50 [nM]
CC(N[C@@H]1C[C@H](C)CN(c2ccc(C#N)c3ncccc23)C1)c1ccc(N2CCNCC2)cc1 (stereo partly drawn) [Example 26, 5-[(3S,5R)-3-methyl-5-[1-(4-piperazin-1-ylphenyl)ethylamino]-1-piperidyl]quinoline-8-carbonitrile]	91
C[C@H]1C[C@@H](NCc2ccc(N3CCNCC3)cc2)CN(c2ccc(C#N)c3nccnc23)C1 [Example 3, 8-[(3S,5R)-3-methyl-5-[(4-piperazin-1-ylphenyl)methylamino]-1-piperidyl]quinoxaline-5-carbonitrile]	30
C[C@H]1C[C@@H](NCc2ccc(N3CCN(C)CC3)cn2)CN(c2ccc(C#N)c3ncsc23)C1 [Example 18, 7-[(3S,5R)-3-methyl-5-[[5-(4-methylpiperazin-1-yl)-2-pyridyl]methylamino]-1-piperidyl]-1,3-benzothiazole-4-carbonitrile]	11
C[C@H]1C[C@@H](NCc2ccc3c(c2)CCNC3)CN(c2ccc(C#N)c3ncccc23)C1 [Example 11, 5-[(3S,5R)-3-methyl-5-(1,2,3,4-tetrahydroisoquinolin-6-ylmethylamino)-1-piperidyl]quinoline-8-carbonitrile]	15
C[C@H]1C[C@@H](NCc2ccc(N3CCNCC3)cc2F)CN(c2ccc(C#N)c3ncccc23)C1 [Example 4, 5-[(3R,58)-3-[(2-fluoro-4-piperazin-1-yl-phenyl)methylamino]-5-methyl-1-piperidyl]quinoline-8-carbonitrile]	13
C[C@H]1C[C@@H](NCc2cnc(N3CCN(C)CC3)nc2)CN(c2ccc(C#N)c3ncccc23)C1 [Example 16, 5-[(3S,5R)-3-methyl-5-[[2-(4-methylpiperazin-1-yl)pyrimidin-5-yl]methylamino]-1-piperidyl]quinoline-8-carbonitrile]	11
C[C@H]1C[C@@H](NCc2cnc(N3CCN[C@@H](C)C3)nc2)CN(c2ccc(C#N)c3ncccc23)C1 [Example 29, 5-[(3S,5R)-3-methyl-5-[[2-[(3S)-3-methylpiperazin-1-yl]pyrimidin-5-yl]methylamino]-1-piperidyl]quinoline-8-carbonitrile]	8
C[C@H]1C[C@@H](NCc2ccc3c(n2)CCNC3)CN(c2ccc(C#N)c3ncccc23)C1 [Example 30, 5-[(3S,5R)-3-methyl-5-(5,6,7,8-tetrahydro-1,6-naphthyridin-2-ylmethylamino)-1-piperidyl]quinoline-8-carbonitrile]	16
C[C@H]1C[C@@H](NCc2ncc(N3CCNCC3)cn2)CN(c2ccc(C#N)c3ncccc23)C1 [Example 25, 5-[(3S,5R)-3-methyl-5-[(5-piperazin-1-ylpyrimidin-2-yl)methylamino]-1-piperidyl]quinoline-8-carbonitrile]	15
C[C@H]1C[C@@H](NCc2cccc(N3CCN(C)CC3)c2)CN(c2ccc(C#N)c3ncccc23)C1 [Example 6, 5-[(3S,5R)-3-methyl-5-[[3-(4-methylpiperazin-1-yl)phenyl]methylamino]-1-piperidyl]quinoline-8-carbonitrile]	42
C[C@H]1C[C@@H](NCc2cccc(N3CCNCC3)c2)CN(c2ccc(C#N)c3ncccc23)C1 [Example 8, 5-[(3S,5R)-3-methyl-5-[(3-piperazin-1-ylphenyl)methylamino]-1-piperidyl]quinoline-8-carbonitrile]	39
C[C@H]1C[C@@H](NCc2cnc(N3CCN[C@H](C)C3)nc2)CN(c2ccc(C#N)c3ncccc23)C1 [Example 28, 5-[(3S,5R)-3-methyl-5-[[2-[(3R)-3-methylpiperazin-1-yl]pyrimidin-5-yl]methylamino]-1-piperidyl]quinoline-8-carbonitrile]	12
C[C@H]1C[C@@H](N2Cc3cc(N4CCNCC4)cnc3C2)CN(c2ccc(C#N)c3ncccc23)C1 [Example 23, 5-[(3S,5R)-3-methyl-5-(3-piperazin-1-yl-5,7-dihydropyrrolo[3,4-b]pyridin-6-yl)-1-piperidyl]quinoline-8-carbonitrile]	23
C[C@H]1C[C@@H](NCc2ccc(N3CCNCC3)cc2)CN(c2ccc(C#N)c3ncccc23)C1 [Example 1, 5-[(3S,5R)-3-methyl-5-[(4-piperazin-1-ylphenyl)methylamino]1-piperidyl]quinoline-8-carbonitrile]	16
C[C@H]1C[C@@H](NCc2ccc(N3CCN(C)CC3)cc2)CN(c2ccc(C#N)c3ncccc23)C1 [Example 7, 5-[(3S,5R)-3-methyl-5-[[4-(4-methylpiperazin-1-yl)phenyl]methylamino]-1-piperidyl]quinoline-8-carbonitrile]	16
C[C@H]1C[C@@H](N2Cc3ccccc3C2)CN(c2ccc(C#N)c3ncccc23)C1 [Example R2, reference compound]	48
C[C@H]1C[C@@H](NCc2cnc(N3CCNCC3)cn2)CN(c2ccc(C#N)c3ncccc23)C1 [Example 31, 5-[(3S,5R)-3-methyl-5-[(5-piperazin-1-ylpyrazin-2-yl)methylamino]-1-piperidyl]quinoline-8-carbonitrile]	≤ 3
C[C@H]1C[C@@H](NCc2ccc(C3CCNCC3)cc2)CN(c2ccc(C#N)c3ncccc23)C1 [Example 2, 5-[(3S,5R)-3-methyl-5-[[4-(4-piperidyl)phenyl]methylamino]-1-piperidyl]quinoline-8-carbonitrile]	32
C[C@H]1C[C@@H](NCc2ccc(N3CCNCC3)cn2)CN(c2ccc(C#N)c3ncccc23)C1 [Example 5, 5-[(3S,5R)-3-methyl-5-[(5-piperazin-1-yl-2-pyridyl)methylamino]-1-piperidyl]quinoline-8-carbonitrile]	17
C[C@H]1C[C@@H](NCc2cnc(N3CCNCC3)nc2)CN(c2ccc(C#N)c3ncccc23)C1 [Example 17, 5-[(3S,5R)-3-methyl-5-[(2-piperazin-1-ylpyrimidin-5-yl)methylamino]-1-piperidyl]quinoline-8-carbonitrile]	7
C[C@H]1C[C@@H](NCc2ccccc2)CN(c2ccc(C#N)c3ncccc23)C1 [Example R1, reference compound]	89
Cc1cc(-c2ccc(CN[C@@H]3C[C@H](C)CN(c4ccc(C#N)c5ncccc45)C3)cc2)cc(C)n1 [Example 15, 5-[(3R,5S)-3-[[4-(2,6-dimethyl-4-pyridyl)phenyl]methylamino]-5-methyl-1-piperidyl]quinoline-8-carbonitrile]	84
C[C@H]1C[C@@H](N(C)Cc2ccc(N3CCNCC3)cc2)CN(c2ccc(C#N)c3ncccc23)C1 [Example 9, 5-[(3S,5R)-3-methyl-5-[methyl-[(4-piperazin-1-ylphenyl)methyl]amino]-1-piperidyl]quinoline-8-carbonitrile]	15
C[C@H]1C[C@@H](N2Cc3ccc(N4CCNCC4)cc3C2)CN(c2ccc(C#N)c3ncccc23)C1 [Example 12, 5-[(3S,5R)-3-methyl-5-(5-piperazin-1-ylisoindolin-2-yl)-1-piperidyl]quinoline-8-carbonitrile]	7
C[C@H]1C[C@@H](NCc2ccc(N3CCNCC3)nc2)CN(c2ccc(C#N)c3ncccc23)C1 [Example 10]	7
